How the values were obtained:
N-42 cells = assay: 14C-acetate incorporation in N-42 cells; type: cell-based; conditions: compound at 10 μM
Procedure: ^14C-Acetat Incorporation in N-42 Cells
30000 cells (N-42), in 24 well plates are incubated with the compound dissolved in 500 μL Krebs-Ringer-buffer for 60 min at 37° C., then incubated with 5 μL 1:10 14C-Acetate dilution (1 000 000 dpm) for 4 hours at 37° C. incubation, then washed with 500 μl PBS. 500 μL chloroform/methanol mix 1:1 and 175 μL sodium hydroxide solution was given in each well. The upper fraction is taken away and the lower fraction is vaporized. 50 μL chloroform/methanol mix 1:1 is again given in every well. 10 μL each are taken and given to scintillation vials with 4 mL Ultima Gold. Each vial is measured for 1 minute in a β-Counter.
Cerulenin, a literature known FAS inhibitor is used to validate the assay.

sebaceous glands = assay: In vivo activity on sebaceous glands in rats; design: species or system Wistar rats
Procedure: In vivo activity of the FAS inhibitors on sebaceous glands is determined as exemplified with the following experiment: Female Wistar rats [Crl:Wi(Han); Charles River, Germany] weighing 200-240 g are conventionally housed in Makrolon type cages at a constant temperature of 22±3° C., on a 12 h light/dark cycle. Food and water are provided ad libitum. The animals (n=7 per group) are orally treated once daily with 3, 10 and 30 mg/kg of compound 1.2 in a suspension with 0.5% Natrosol for seven days. All experimental procedures are conducted according to the German Animal Protection Law. Beginning with day 4 of treatment, at the highest dose effects on skin and coat of the animals could be detected. […] With longer treatment alopecia and cutaneous lesions also developed at the skin of the back. At day seven the animals are euthanized and representative tissue samples of the eye lid, muzzle and back skin are collected into 4% formaldehyde solution for microscopic examination. After trimming, the fixed tissues are processed, embedded in paraffin, sectioned at a thickness of approximately 4 μm and stained with hematoxylin-eosin (H&E). […] This lesion is sometimes accompanied by a slight inflammatory reaction.

[1] = biological target: T1, Fatty Acid Synthase (FAS) (Homo sapiens, UniProt P49327); assay: Human FAS Enzyme Assay; type: biochemical; conditions: FAS enzyme prepared from HeLa cells; NADPH consumption; read-out: IC50 (potency range)
T1 construct: The FAS enzyme is prepared from HeLa cells; endogenous in cells; host or cells: HeLa cells
T1 sequence (P49327 whole entry): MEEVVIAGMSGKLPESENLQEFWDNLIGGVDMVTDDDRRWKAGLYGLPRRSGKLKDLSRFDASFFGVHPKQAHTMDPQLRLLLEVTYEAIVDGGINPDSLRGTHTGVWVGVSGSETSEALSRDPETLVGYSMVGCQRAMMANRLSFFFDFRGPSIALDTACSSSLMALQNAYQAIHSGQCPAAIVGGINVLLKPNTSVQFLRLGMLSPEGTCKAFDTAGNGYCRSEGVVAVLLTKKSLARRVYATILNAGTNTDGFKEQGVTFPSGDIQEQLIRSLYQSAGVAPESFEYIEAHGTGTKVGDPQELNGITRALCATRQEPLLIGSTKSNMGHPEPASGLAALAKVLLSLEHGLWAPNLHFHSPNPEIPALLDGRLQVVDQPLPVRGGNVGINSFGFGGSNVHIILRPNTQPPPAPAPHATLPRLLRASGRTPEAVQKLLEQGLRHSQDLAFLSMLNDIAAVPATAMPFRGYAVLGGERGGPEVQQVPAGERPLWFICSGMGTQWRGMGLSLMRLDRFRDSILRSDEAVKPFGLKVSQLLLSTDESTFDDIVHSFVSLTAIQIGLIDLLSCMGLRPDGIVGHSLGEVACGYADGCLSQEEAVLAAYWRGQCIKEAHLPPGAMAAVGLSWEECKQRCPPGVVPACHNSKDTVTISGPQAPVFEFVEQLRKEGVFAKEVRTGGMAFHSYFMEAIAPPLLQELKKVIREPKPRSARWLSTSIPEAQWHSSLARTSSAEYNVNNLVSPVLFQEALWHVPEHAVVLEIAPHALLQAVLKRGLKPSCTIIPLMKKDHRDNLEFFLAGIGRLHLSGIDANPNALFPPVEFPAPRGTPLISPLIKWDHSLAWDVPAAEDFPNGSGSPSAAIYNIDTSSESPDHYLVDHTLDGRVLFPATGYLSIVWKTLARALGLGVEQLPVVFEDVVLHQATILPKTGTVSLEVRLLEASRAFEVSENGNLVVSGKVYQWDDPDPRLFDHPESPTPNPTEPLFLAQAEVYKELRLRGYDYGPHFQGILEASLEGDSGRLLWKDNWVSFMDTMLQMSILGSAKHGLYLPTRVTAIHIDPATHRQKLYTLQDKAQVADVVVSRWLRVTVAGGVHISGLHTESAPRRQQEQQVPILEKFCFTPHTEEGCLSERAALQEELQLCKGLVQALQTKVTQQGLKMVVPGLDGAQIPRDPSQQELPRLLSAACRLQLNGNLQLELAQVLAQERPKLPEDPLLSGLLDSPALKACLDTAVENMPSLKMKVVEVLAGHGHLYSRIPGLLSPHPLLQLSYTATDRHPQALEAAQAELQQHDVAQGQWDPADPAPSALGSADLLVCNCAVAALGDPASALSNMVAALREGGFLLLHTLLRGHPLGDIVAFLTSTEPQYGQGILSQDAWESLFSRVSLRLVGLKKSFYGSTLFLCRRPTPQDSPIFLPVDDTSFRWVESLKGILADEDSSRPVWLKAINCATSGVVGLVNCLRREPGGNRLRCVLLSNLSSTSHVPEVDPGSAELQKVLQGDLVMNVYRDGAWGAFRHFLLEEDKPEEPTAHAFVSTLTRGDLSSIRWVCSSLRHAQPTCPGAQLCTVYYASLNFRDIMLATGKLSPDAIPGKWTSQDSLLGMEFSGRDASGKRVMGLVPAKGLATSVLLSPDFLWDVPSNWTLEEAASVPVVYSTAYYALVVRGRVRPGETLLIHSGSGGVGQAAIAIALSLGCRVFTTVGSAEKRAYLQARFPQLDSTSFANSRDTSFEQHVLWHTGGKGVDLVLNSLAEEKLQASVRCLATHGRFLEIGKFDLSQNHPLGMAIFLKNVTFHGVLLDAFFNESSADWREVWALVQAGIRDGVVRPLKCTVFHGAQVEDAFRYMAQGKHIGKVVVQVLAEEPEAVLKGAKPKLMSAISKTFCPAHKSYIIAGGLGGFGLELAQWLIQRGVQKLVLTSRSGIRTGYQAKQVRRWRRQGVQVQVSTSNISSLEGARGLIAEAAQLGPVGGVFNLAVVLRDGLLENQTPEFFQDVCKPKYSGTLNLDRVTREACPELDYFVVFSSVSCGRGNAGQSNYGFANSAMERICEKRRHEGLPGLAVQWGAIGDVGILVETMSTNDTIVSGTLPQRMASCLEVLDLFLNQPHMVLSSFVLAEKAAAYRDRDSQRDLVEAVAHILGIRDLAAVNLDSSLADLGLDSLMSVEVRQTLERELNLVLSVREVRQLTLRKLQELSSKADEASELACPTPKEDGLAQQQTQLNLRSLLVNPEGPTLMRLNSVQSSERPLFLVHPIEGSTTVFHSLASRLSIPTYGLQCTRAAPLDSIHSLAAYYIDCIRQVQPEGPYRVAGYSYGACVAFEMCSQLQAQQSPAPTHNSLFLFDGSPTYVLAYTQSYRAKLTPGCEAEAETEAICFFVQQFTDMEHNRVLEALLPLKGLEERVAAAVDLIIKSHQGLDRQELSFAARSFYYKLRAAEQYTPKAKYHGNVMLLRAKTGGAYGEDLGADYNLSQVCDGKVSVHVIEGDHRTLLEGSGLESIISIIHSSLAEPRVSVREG
Excerpt: Fatty acid synthase is an enzyme complex that harbours seven enzymatic activities catalysing the reductive synthesis of long chain fatty acids from acetyl CoA and malonyl CoA to palmitate. When acetyl CoA and malonyl CoA are forming palmitate NADPH is consumed forming NADP. Since NADPH is fluorescent but not NADP the reaction can be measured by analysing the decrease in fluorescence.
Acetyl coenzyme A (cat.-no. A-2181) and malonyl coenzyme A (cat.-no. M-4263) are purchased from Sigma. NADPH (cat.-no. 30316) is purchased from Serva. The FAS enzyme is prepared from HeLa cells. All other material is of highest grade commercially available.
In the plates, 10 μl test compound in distilled water/DMSO (final concentration 0.1% DMSO) are mixed with 35 μl of a mixture of NADPH and acetyl CoA in phosphate buffer (f.c. 326 μM and 60 μM, respectively), and 45 μl FAS enzyme diluted in enzyme buffer. The plates are incubated for 60 minutes at 37° C. The reaction is then started by the addition of 10 μl malonyl CoA dissolved in water (200 μM). The decrease of the optical density in the wells is determined at 37° C. at a wavelength of 340 nm over 10 minutes. From these kinetic data, the slope (i.e. Vmax) is calculated and used for the calculation.
20 mM KH2PO4/K2HPO4, 1 mM EDTA, 1 mM DTT, 5% glycerol, pH 7.4
Each assay 96 well microtiter plate contains wells with vehicle controls instead of compound (1% DMSO in water) as reference for non-inhibited enzyme activity and wells without malonyl CoA as controls for non-specific NADPH degradation. The analysis of the data is performed by the calculation of the OD decrease in the presence of the test compound compared to the OD decrease of the test control wells after subtraction of the non-specific background without the malonyl CoA substrate (slope(sample)-slope(sample w/o malonyl CoA). An inhibitor of the FAS enzyme will give values between Control values (complete reaction without substance) and complete inhibition. Reported values will include: IC50; Top(Control: nmol NADPH oxidized/min/mg); Bottom (MaxInh: nmol NADPH oxidized/min/mg); RATIO (log(IC50 substance/IC50 control inhibitor)).

[2] = female Wistar rats, highest dose (30 mg/kg orally once daily), beginning with day 4 of treatment

Compound: CCC(=O)N[C@H]1CC[C@@H](C(=O)N(C)c2ccc(-c3nc4ccccc4o3)cc2)C1 [Example 1.2, (1R,3S)-3-Propionylamino-cyclopentanecarboxylic acid N-(4-benzooxazol-2-yl-phenyl)-N-methyl-amide]
- % control 14C acetate incorporation (N-42 cells): 64.1 % control
- microscopic examination of skin (eye lid, muzzle, back skin) (sebaceous glands; female Wistar rats, 3, 10 and 30 mg/kg orally once daily for seven days, all dose groups): treatment-related diffuse atrophy of sebaceous glands of the skin
- effects on skin and coat of the animals (sebaceous glands; [2]): progressive cranial alopecia
- skin of the mouth and eye lid (sebaceous glands; [2]): reddened and swollen
- IC50 [1]: ≤ 500 nM
